{"source": "patent US6262064A", "about": "“Octahydrobenzo[f]quinoline-based receptor agonists and antagonists” (priority 1999, dated 2001)", "key": {"D3 (human) receptor": {"molecular_target": "T1, D3 (human) receptor (Homo sapiens, UniProt P35462)", "T1 construct": "expressed in transfected cells", "T1 sequence (P35462 whole entry)": "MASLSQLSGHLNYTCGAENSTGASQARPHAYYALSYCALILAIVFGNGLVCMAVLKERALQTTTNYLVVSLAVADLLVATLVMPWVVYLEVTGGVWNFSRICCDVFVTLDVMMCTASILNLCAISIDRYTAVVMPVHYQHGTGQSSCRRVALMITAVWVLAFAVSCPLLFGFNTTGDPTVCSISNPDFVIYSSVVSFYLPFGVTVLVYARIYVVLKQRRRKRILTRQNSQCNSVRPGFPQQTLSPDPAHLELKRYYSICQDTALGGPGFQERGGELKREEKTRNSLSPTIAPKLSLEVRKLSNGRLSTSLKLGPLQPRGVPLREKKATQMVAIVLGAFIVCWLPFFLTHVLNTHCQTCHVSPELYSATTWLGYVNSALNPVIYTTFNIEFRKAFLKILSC", "experiment": "D2:D3:D4 competition binding assay, D3 ([3H]-spiperone)", "conditions": "in words, Example 26", "protocol": "(§1) To determine the D2, D3 or D4 receptor selectivity, competition binding assays were performed using membranes from fibroblast cell lines transfected with D2444 (rat), D3 (human) or D4 (rat) receptors. All cell lines were maintained in Dulbecco's modified Eagle's media (DMEM) supplemented with 10 % fetal bovine serum at 37° C. with 5% CO2. Transfected cells were maintained in DMEM containing 300 μg/mL of the antibiotic G418 (Gibco).\nNuclei were removed by centrifugation for five minutes at 600 g at 4° C., membranes were pelleted for 25 minutes at 50,000 g. Membrane protein was resuspended in homogenization buffer (0.32M sucrose, 0.0025M Tris, pH 6.9 at 20° C.) and incubated at 37° C. for 15 minutes. Membrane protein was pelleted, resuspended in water and stored at -70° C.\nThe compositions were tested in varying concentrations between 1 nM and 100 μM. Non-specific binding was determined using 1 μM eticlopride.\nAfter addition of all components, the samples were incubated for 15 minutes at 37° C., terminated with 50 mM Tris-HCl (pH 7.4 at 4° C.) and collected on glass-fiber filters on a Brandel cell harvester. […] Each composition was evaluated in duplicate experiments."}, "D4 receptor": {"molecular_target": "T2, D4 receptor (Homo sapiens, UniProt P21917, DEL265-296)", "T2 construct": "expressed in transfected cells; host or cells: COS-7 cells", "T2 sequence (P21917 other isoform, or with tags, fused parts or gaps DEL265-296)": "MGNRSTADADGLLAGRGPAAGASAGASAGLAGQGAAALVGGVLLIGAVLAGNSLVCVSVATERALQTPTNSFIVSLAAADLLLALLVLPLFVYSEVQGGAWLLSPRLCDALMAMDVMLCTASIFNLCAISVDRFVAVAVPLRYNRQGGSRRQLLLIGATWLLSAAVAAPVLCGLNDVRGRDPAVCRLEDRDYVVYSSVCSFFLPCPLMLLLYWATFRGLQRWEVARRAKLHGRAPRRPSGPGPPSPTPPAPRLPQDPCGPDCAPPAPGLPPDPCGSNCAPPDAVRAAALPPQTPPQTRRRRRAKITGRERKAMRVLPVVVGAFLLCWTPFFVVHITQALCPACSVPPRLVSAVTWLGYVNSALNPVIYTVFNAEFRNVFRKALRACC", "experiment": "D2:D4 comparative binding assay, D4 (COS-7 cells)", "protocol": "(§2) To evaluate D2 versus D4 receptor selectivity, comparative binding assays were performed to compare the binding affinities of compositions of this invention for cloned D2 and D4 receptors.\n(§3) The D2 assay was prepared from pig anterior pituitary tissue as described in Seeman et al., Molecular Pharmacology, 28:391 (1985). The D4 assay contained membranes prepared from COS-7 cells transfected with a 3.9 kb cDNA-gene fusion construct as described in H. H. M. Vantol, Nature, 350:610 (1991).\n(§4) Binding assays were done using the methods described in by Seeman and Vantol. [^3 H]-spiperone (New England Nuclear, Boston, Mass.). The compositions were tested varying concentrations.\n(§5) After addition of all components, the samples were incubated for 15 minutes at 37° C., terminated with 50 mM Tris-HCl (pH 7.4 at 20° C.) and collected on glass-fiber filters on a Brandel cell harvester. Radioactivity retained on the filters was counted on a Beckman LS 1701 scintillation counter and data were analyzed by non-linear least squares regression methods."}, "5HT1 serotonin receptor": {"tested_on": "5HT1 serotonin receptor", "experiment": "Serotonin (5HT1) binding assay", "description": "In these assays, the binding reaction was initiated by the addition of varying concentrations of the potential binding composition and a radioligand to an appropriate tissue. The assay was then incubated to allow binding. Binding was then terminated by dilution of the assay with a cold buffer, followed by rapid vacuum filtration onto Whatman GI/C filters that were presoaked in 0.1% polyethylene imine for at least 3 hours. Radioactivity trapped onto the filters was determined and compared to control values in order to ascertain any interactions of test compounds with the binding sites.\nIncubation was conducted in 50 mM TRIS-HCl (pH 7.4) at 45 minutes for 37° C. The radioligand used was [^3 H]Hydroxytryptamine binoxalate (15-30 Ci/mmol). The final ligand concentration was 3.0 nM."}, "[1]": {"tested_on": "male Sprague-Dawley albino rats", "experiment": "Stereotypy evaluation for dopaminergic activity", "format": "in vivo", "conditions": "IP", "protocol": "Young, adult, male Sprague-Dawley (Charles River) albino rats (200-250 g) served as subjects in this experiment. The rats were injected IP with each dose of (±)-trans-9 or (±)-cis-9. Six rats were tested at each dose. Experimental sessions were 60 minutes in duration. The tests were performed and rated in accordance with the method described in Campbell et al., Psychopharmacology, 88:158 (1986). Each rat was rated with a score of 0 to 3, where 0 represents no sterotypy."}, "[2]": {"tested_on": "non-habituated male Swiss-Webster mice", "experiment": "Locomotor dose-effect test", "format": "in vivo", "protocol": "Compounds of this invention were tested to evaluate any depressant effect upon locomotor activity on non-habituated and cocaine-influenced mice. Locomotor activity was measured in photocell cages. A panel of infrared beams was located in the horizontal direction along all 4 sides of each activity cage. Horizontal photocell beam interruptions were recorded by a computer in 10 minute intervals.\nNon-habituated male Swiss-Webster served as subjects in this experiment. The mice were injected via the intraperitoneal (IP) route with a methycellulose vehicle or a test compound, comprising trans-9 or cis-9, and placed singly in cages for 20 minutes. After this 20 minute period, mice were injected with saline IP, placed in individual photocell cages and testing for effects upon locomotor activity was begun. Eight mice were tested at each dose level. Experimental sessions were 60 minutes in duration with horizontal locomotor activity recorded in 10 minute intervals. Within each 10 minute interval, the data from all subjects are averaged.\nThe results of these tests were provided in FIGS. 1a, 1b, 2a and 2b, as well as in Table XI. […] Data were analyzed by a one-way ANOVA computed across doses using a long10 transformation of the horizontal activity counts. Comparisons between vehicle and each dose of the compounds tested were made by a priori contrasts. Doses of the compounds tested, which produced a statistically significant (p<0.05) decrease in locomotor activity relative to vehicle control, are denoted with an asterisk. […] The horizontal activity counts were regressed against the log10 dose of the test compound."}, "D2 receptor [3]": {"molecular_target": "T3, D2 receptor (Sus scrofa, UniProt F1SM69)", "T3 construct": "pig anterior pituitary tissue; from tissue; host or cells: pig anterior pituitary", "T3 sequence (F1SM69 1-443)": "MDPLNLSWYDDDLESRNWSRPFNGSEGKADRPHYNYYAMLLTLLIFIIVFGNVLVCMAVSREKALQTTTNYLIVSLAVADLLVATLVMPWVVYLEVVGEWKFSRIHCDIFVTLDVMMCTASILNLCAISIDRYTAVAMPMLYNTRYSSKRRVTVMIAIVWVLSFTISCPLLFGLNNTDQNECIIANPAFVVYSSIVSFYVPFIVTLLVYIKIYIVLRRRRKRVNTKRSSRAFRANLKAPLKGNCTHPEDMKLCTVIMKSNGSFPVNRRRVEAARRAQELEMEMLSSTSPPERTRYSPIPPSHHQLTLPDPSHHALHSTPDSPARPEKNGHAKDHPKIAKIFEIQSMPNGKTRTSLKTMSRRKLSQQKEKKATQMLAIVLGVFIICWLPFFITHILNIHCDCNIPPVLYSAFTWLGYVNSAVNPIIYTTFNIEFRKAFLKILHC", "experiment": "D2:D4 comparative binding assay, D2 (pig anterior pituitary)", "protocol": "as §2, §3, §4, §5"}, "D1 dopamine receptor": {"molecular_target": "T4, D1 dopamine receptor (Rattus norvegicus, UniProt P18901)", "T4 construct": "rat striatal membranes; from tissue; host or cells: rat striatum membranes", "T4 sequence (P18901 whole entry)": "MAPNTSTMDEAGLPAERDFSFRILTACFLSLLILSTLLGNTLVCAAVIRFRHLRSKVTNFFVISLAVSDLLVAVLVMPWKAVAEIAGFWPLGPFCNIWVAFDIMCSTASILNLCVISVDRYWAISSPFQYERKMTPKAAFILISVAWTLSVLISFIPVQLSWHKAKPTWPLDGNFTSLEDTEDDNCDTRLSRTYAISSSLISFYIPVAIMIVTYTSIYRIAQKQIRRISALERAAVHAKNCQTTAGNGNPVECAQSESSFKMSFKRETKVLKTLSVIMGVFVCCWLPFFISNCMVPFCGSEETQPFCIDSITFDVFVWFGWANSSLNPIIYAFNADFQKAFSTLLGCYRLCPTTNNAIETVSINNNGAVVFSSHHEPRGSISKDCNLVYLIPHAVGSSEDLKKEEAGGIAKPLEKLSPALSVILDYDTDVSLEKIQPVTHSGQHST", "experiment": "Dopamine D1 binding assay ([3H]SCH 23390)", "conditions": "Table III; rat striatal membranes; read-out: D1 receptor binding affinity Ki", "protocol": "The final radioligand concentration was 0.5 nM."}, "[4]": {"molecular_target": "alpha2-adrenergic receptor", "experiment": "Alpha2-adrenergic (non-selective) binding assay ([3H]RX 781094)", "parameters": "species or system rat"}, "D2 receptor [5]": {"molecular_target": "T5, D2 receptor (Rattus norvegicus, UniProt P61169)", "T5 construct": "expressed in transfected cells", "T5 sequence (P61169 whole entry)": "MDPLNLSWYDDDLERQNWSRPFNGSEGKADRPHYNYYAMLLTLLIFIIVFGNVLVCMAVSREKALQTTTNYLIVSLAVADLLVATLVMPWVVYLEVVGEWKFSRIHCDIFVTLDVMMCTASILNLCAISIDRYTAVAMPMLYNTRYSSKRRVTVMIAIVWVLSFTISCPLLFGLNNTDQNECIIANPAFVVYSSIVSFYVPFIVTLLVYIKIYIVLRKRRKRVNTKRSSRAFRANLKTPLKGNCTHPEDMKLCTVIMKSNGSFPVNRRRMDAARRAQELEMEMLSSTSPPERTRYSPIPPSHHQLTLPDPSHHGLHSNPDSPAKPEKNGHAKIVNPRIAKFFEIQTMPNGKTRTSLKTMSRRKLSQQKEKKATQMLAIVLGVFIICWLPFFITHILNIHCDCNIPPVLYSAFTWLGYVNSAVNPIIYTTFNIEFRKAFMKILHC", "experiment": "D2 receptor agonist evaluation (membrane binding with and without Gpp(NH)p)", "protocol": "as §1\nTo determine whether or not compounds of this invention were D2 receptor agonists, a membrane binding assay, utilizing the D2 cell line described in Example 26, was performed in the presence and absence of the non-hydrolyzable guanine nucleotide (GTP analogue) Gpp(NH)p."}, "[6]": {"tested_on": "alpha1-adrenergic receptor", "description": "In these assays, the binding reaction was initiated by the addition of varying concentrations of the potential binding composition and a radioligand to an appropriate tissue. The assay was then incubated to allow binding. Binding was then terminated by dilution of the assay with a cold buffer, followed by rapid vacuum filtration onto Whatman GI/C filters that were presoaked in 0.1% polyethylene imine for at least 3 hours. Radioactivity trapped onto the filters was determined and compared to control values in order to ascertain any interactions of test compounds with the binding sites. Binding affinity analyses were performed by Novascreen, Division of the Adheron Corporation, Hanover, Md.\nIncubation was conducted in 50 mM TRIS-HCl (pH 7.7) at 25° C. for 60 minutes. […] The final ligand concentration was 0.5 nm."}, "D2 dopamine receptor": {"molecular_target": "T6, D2 dopamine receptor (Rattus norvegicus, UniProt P61169)", "T6 construct": "rat striatal membranes; from tissue; host or cells: rat striatum membranes", "T6 sequence (P61169 whole entry)": "as above", "experiment": "Dopamine D2 binding assay ([3H]Sulpiride)", "protocol": "The final ligand concentration was 0.5 nM."}}, "note": "“Also recorded” adds a separate entry of the source. Read-outs that look alike come from different tables or passages of the source."}
{"smiles": "Oc1ccc2c(c1O)CC[C@@H]1[C@@H]2CCCN1CCc1ccccc1", "note": "(relative stereo) [trans-9, trans-7,8-dihydroxy-4-phenethyl-1,2,3,4,4a,-5,6,10b-octahydrobenzo[f]quinoline]", "values": [{"measurement": "selectivity for the D3 receptor", "setting": "D3 (human) receptor", "value": "highly selective for the D3 receptor over the D2 or D4 receptors"}, {"measurement": "Ki", "setting": "D4 receptor", "value": 2.4, "unit": "nM"}, {"measurement": "5HT1 serotonin receptor binding affinity", "setting": "5HT1 serotonin receptor; in words", "value": "high binding affinity for the 5HT1 serotonin receptor"}, {"measurement": "Ki", "setting": "5HT1 serotonin receptor; read-out: 5-HT1 receptor binding affinity Ki, Table III, rat cortical membranes", "value": 150, "unit": "nM"}, {"measurement": "stereotypy score", "setting": "[1]; 0.0001 mg/kg", "value": "6.5 ± 0.4"}, {"measurement": "stereotypy score", "setting": "[1]; 0.001 mg/kg", "value": "10.0 ± 0.9"}, {"measurement": "stereotypy score", "setting": "[1]; 0.003 mg/kg", "value": "8.2 ± 0.8"}, {"measurement": "stereotypy score", "setting": "[1]; 0.01 mg/kg", "value": "7.2 ± 0.6"}, {"measurement": "stereotypy score", "setting": "[1]; 0.03 mg/kg", "value": "6.5 ± 0.5"}, {"measurement": "stereotypy score", "setting": "[1]; 0.1 mg/kg", "value": "6.0 ± 0.7"}, {"measurement": "stereotypy score", "setting": "[1]; 0.3 mg/kg", "value": "1.7 ± 0.5"}, {"measurement": "stereotypy score", "setting": "[1]; 1.0 mg/kg", "value": "0.3 ± 0.2"}, {"measurement": "stereotypy score", "setting": "[1]; 3.0 mg/kg", "value": "0.2 ± 0.2"}, {"measurement": "stereotypy score", "setting": "[1]; 10.0 mg/kg", "value": 0.0}, {"measurement": "induction of stereotypy, dopamine agonism", "setting": "[1]; in words", "value": "appears to be a strong agonist as it induced stereotypy in rats"}, {"measurement": "decrease in locomotor activity, overall assessment", "setting": "[2]; IP, in words", "value": "strong agonist in inducing a decrease in locomotor activity in mice"}, {"measurement": "suppression of locomotor activity", "setting": "[2]; IP, in words", "value": "marked suppression of locomotor activity when initially tested at 10 mg/kg; also recorded: Marked suppression was still evident at 0.1 mg/kg"}, {"measurement": "ED50", "setting": "[2]; Mus musculus, read-out: ED50 (dose which produced 50% maximal depressant activity), IP, horizontal locomotor activity", "value": 0.038, "unit": "mg/kg"}, {"measurement": "Ki", "setting": "D2 receptor [3]", "value": 6.9, "unit": "nM"}, {"measurement": "Ki", "setting": "D1 dopamine receptor", "value": 3600, "unit": "nM"}, {"measurement": "Ki", "setting": "[4]; Table III, rat cortical membranes, read-out: α2 receptor binding affinity Ki", "value": 22, "unit": "nM"}, {"measurement": "α2 receptor binding affinity", "setting": "[4]; in words", "value": "high binding affinities for the α2 receptor"}, {"measurement": "Ratio of +:- Gpp(NH)p", "setting": "D2 receptor [5]; Table XV", "value": 8.82}, {"measurement": "Ki", "setting": "D2 receptor [5]; Table XV, with Gpp(NH)p, read-out: D2 receptor binding Ki with Gpp(NH)p", "value": "924 ± 1840", "unit": "nM"}, {"measurement": "Ki", "setting": "D2 receptor [5]; Table XV, without Gpp(NH)p, read-out: D2 receptor binding Ki without Gpp(NH)p", "value": "105 ± 29", "unit": "nM"}, {"measurement": "D2 agonist/antagonist assessment", "setting": "D2 receptor [5]; in words", "value": "appear to be agonists"}, {"measurement": "effect of GTP on D2 receptor binding", "setting": "D2 receptor [5]; in words", "value": "D2 receptor binding was enhanced by the addition of GTP"}, {"measurement": "α1 receptor binding affinity", "setting": "[6]; in words", "value": "high binding affinities for the α1 receptor"}, {"measurement": "Ki", "setting": "[6]; read-out: α1 receptor binding affinity Ki, Table III, rat forebrain membranes", "value": 80, "unit": "nM"}, {"measurement": "Ki", "setting": "D2 dopamine receptor", "value": 2.2, "unit": "nM"}, {"measurement": "dopamine receptor binding affinity", "setting": "D2 dopamine receptor; in words", "value": "good dopamine receptor binding affinities"}, {"measurement": "selectivity for the D2 over the D1 dopamine receptor", "setting": "D2 dopamine receptor; in words", "value": "highly selective for the D2 dopamine receptor over the D1 dopamine receptor"}]}
